Assay results: PubChem BioAssay (NCI)
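1) Cells in 96-well plates. 2) Compound, 48 h, 5 concentrations. 3) Linear interpolation between surrounding doses. 4) Unreached endpoint = highest concentration. GI50 = concentration required for 50% inhibition of growth. TGI denotes the concentration required for complete inhibition of growth.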

Tests used:
Assay in all cases: inhibition of tumour cell growth, NCI panel, 48 h
[1] = test system: ACHN renal
[2] = test system: HOP-92 NSCLC
[3] = test system: K-562 leukemia
[4] = test system: NCI-H522 lung
[5] = test system: PC-3 prostate
[6] = test system: SK-OV-3 ovarian
[7] = test system: SNB-19 CNS
[8] = test system: T-47D breast
[9] = test system: UACC-257 melanoma
[10] = test system: UO-31 renal

Compound	TGI [1] [µM]	TGI [2] [µM]	TGI [3] [µM]	TGI [4] [µM]	TGI [5] [µM]	TGI [6] [µM]	TGI [7] [µM]	TGI [8] [µM]	TGI [9] [µM]	TGI [10] [µM]	GI50 [1] [nM]	GI50 [2] [µM]	GI50 [3] [nM]	GI50 [4] [µM]	GI50 [5] [nM]	GI50 [6] [µM]	GI50 [7] [µM]	GI50 [8] [µM]	GI50 [9] [µM]	GI50 [10] [nM]
CN1CCN(C)C12C=c1ccccc1=CC21CC1	> 100	79.5	46.4	52.9	> 96.3	> 100	> 100	> 86.2	48.2	> 100	–	–	–	–	–	–	–	–	–	–
Cn1c2ccccc2c2c(-c3ccccc3)[n+]3ccncc3nc21	> 100	> 100	> 100	> 100	> 100	> 100	> 100	> 100	> 100	> 100	> 100000	96.6	> 100000	48	> 100000	> 100	51.8	55.3	59.5	> 100000
CN1CCN(C(=O)OCc2nc3c(N4CCOCC4)nc(Cl)nc3n2C)CC1	2.11	2.23	15.7	2.74	2.92	18.8	3.62	4.99	3.22	2.29	831	0.675	1210	1.1	1330	6.15	1.65	2.01	1.39	1070
